This is an account of results in patent US5663205A, “Pharmaceutical composition for use in glaucoma treatment” (Senju Pharmaceutical Co. Ltd., priority 1992, dated 1997).

The subject of data set [1] is Normal Intraocular Pressure. Put plainly: Test Example 2 (1): intraocular pressure reducing activity on normal intraocular pressure, pigmented rabbits. In kind it is in vivo, pigmented rabbits (Dutch belted rabbits). As for the experimental part: Intraocular Pressure Reducing Activity of Amosulalol Hydrochloride on Normal Intraocular Pressure in Pigmented Rabbits Forty (40) male pigmented rabbits (Dutch belted rabbits) weighing about 2 kg, after having been confirmed to be free from ocular abnormalities, were bred in a breeding room maintained at a temperature of 24± 4° C. and at a relative humidity of 55± 15%, while they were fed solid food (Labo RG-RO, manufactured by Nihon Nohsan Kogyo K.K.) at a daily rate of 100 g per rabbit and allowed free access to tap water as drinking water. As a test drug, amosulalol hydrochloride was processed into 0.05%, 0.5% and 1.0% aqueous solutions which were used in the test, and 0.5% timolol maleate ophthalmic solution [Timoptol (registered trademark): Ban-yu Pharmaceutical Co.] and physiological saline were used as a positive control drug and a control substance, respectively. (1) Measurement of intraocular pressure: Forty (40) rabbits were divided into five groups. each consisting of 8 heads, and 50 μl of test drug as well as the control drug and physiological saline were applied topically to one eye each of the individual rabbits, with the other being left untreated. Before instillation and 0.5, 1, 2, 3, 4, 6 and 8 hours after topical application respectively, intraocular pressure for both eyes of each rabbit was measured using PTG. Time-course changes of intraocular pressure measurements taken with the eyes treated by instillation of each of the test drugs, control drug and physiological saline, are illustrated in FIGS. 2 (for treated eyes) and 3 (for non-treated eyes), respectively, with time (hour) after instillation taken as abscissa and intraocular pressure (mmHg) as ordinate; each value in mean ± S.E. (the number in each case is 8). The signs "a", "b", "c", "d" and "e" designate physiological saline, 0.05% aqueous solution of amosulalol hydrochloride, 0.5% aqueous solution of amosulalol hydrochloride, 1.0% aqueous solution of amosulalol hydrochloride and 0.5% solution of timolol maleate, respectively.

Data set [2] deals with α-adrenergic. The settings on record: cited from earlier work.
Data set [3] in a line: Stability of aqueous solution against heat and light. In kind it is physicochemical.
Data set [4] concerns Normal Intraocular Pressure. Put plainly: Test Example 3: intraocular pressure, consecutive application for 5 days, pigmented rabbits. It counts as in vivo. As to conditions: 0.5% aqueous solution. The method, then: Intraocular Pressure Reducing Activity of Amosulalol Hydrochloride by Consecutive Application for 5 Days on Normal Intraocular Pressure in Pigmented Rabbits
Eight (8) male pigmented rabbits weighing about 2 kg, after having been confirmed to be free from ocular abnormalities, were bred in a breeding room maintained at a temperature of 24± 4° C. and at a relative humidity of 55± 15%, while they were given solid food (Labo RG-RO, manufactured by Nihon Nohsan Kogyo K.K.) at a daily rate of 100 g per rabbit and allowed free access to tap water as drinking water.
For the 8 pigmented rabbits bred by the above procedure, 50 μl of 0.5% aqueous solution of amosulalol hydrochloride was applied to one eye, with 50 μl of physiological saline being given topically to the other. Intraocular pressure was measured before the first instillation and at regular intervals of 1 hour up to 8 hours after application on Days 1 and 5, and before the first instillation and 2 or 3 hours after application on Days 2, 3 and 4, respectively, with intraocular pressure additionally being measured 24 hours after the first instillation on Day 5.
The signs "a" and "c" designate physiological saline, 0.5% aqueous solution of amosulalol hydrochloride, respectively.

Data set [5] concerns corneal epithelial and endothelial cells. Description: Test Example 7 (2)(e): scanning electron microscope evaluation of corneal epithelial and endothelial cells. It counts as in vivo, Japanese white rabbits. The settings on record: 1% and 0.5% ophthalmic solutions, 28 days. The method, then: (2) Ocular local toxicity test in rabbits of 1.0% and 0.5% ophthalmic solutions of amosulalol hydrochloride by consecutive instillation for 28 days: With 15 male Japanese white rabbits divided into 3 groups each consisting of 5 rabbits, 1.0% and 0.5% ophthalmic solutions of amosulalol hydrochloride as well as physiological saline as a control were applied in one drop (0.05 ml) per time to the right eye of each rabbit alone, four times a day at a regular interval of 2.5 hours, for 28 days consecutively with the left eye being left untreated. (e) Evaluation with a scanning electron microscope of corneal epithelial and endothelial cells; After completion of the instillation of 1.0% and 0.5% ophthalmic solutions of amosulalol hydrochloride, morphological observation was done on corneal epithelial and endothelial cells in 3 eyes each of the two groups.

Data set [6] relates to pupil diameter. Put plainly: Test Example 1 (2): pupil diameter, pigmented rabbits. It counts as in vivo, pigmented rabbits (Dutch belted rabbits). The settings on record: treated eyes, 0.5 to 6 hours after topical application. The method, then: Male pigmented rabbits (Dutch belted rabbits) weighing about 2 kg, after having been confirmed to be free from ocular abnormalities; were bred in a breeding room maintained at a temperature of 24± 4° C. and at a relative humidity of 55± 15%, while they were given solid food (Labo RG-RO manufactured by Nihon Nohsan Kogyo K.K.) at a daily rate of 100 g per rabbit and allowed free access to tap water as drinking water. As a test drug, amosulalol hydrochloride was processed into 0.05% (hereinafter, the term "%" is to be understood to designate "w/v %") and 1.0% aqueous solutions which were used in the test, and 0.5% timolol maleate ophthalmic solution [Timoptol (registered trademark): Ban-yu Pharmaceutical Co.] and physiological saline were used as a positive control drug and a control substance, respectively. (2) Measurement of pupil diameter: With each of the rabbits as used under the above item (1), pupil diameter was measured for both eyes using a micrometer caliper, before instillation and 0.5, 1, 2, 3, 4, and 6 hours after topical application of the individual test drugs and physiological saline, respectively.

Regarding `COc1ccccc1OCCNCC(O)c1ccc(C)c(S(N)(=O)=O)c1.Cl` (stereo not shown) [amosulalol hydrochloride, 5-[1-hydroxy-2-[2-(2-methoxyphenoxy)ethylamino]ethyl]-2-methylbenzenesulfonamide hydrochloride], the “maximum drop in intraocular pressure” value in data set [1] (0.05% aqueous solution, treated eyes, 2 hours after instillation) worked out at 3.6 mmHg; in data set [4] (Day 1, 2 hours after the first instillation), 4.8 mmHg. The “intraocular pressure reducing activity compared with 0.5% timolol maleate ophthalmic solution” value in data set [1] (0.05%, normal eyes) is listed as “more potent intraocular pressure reducing activity”. Further, the “maximum decrease in intraocular pressure” value came out at 6.2 mmHg in data set [1] (0.5% aqueous solution, treated eyes, 2 hours after topical application) and 9.0 mmHg in data set [1] (1.0% aqueous solution, treated eyes, 3 hours after instillation). In data set [1] (0.5% aqueous solution, treated eyes, from 30 min), the “significant drop in intraocular pressure until (time after topical application)” value was determined as 4 h. The “decrease in intraocular pressure sustained until (time after instillation)” value in data set [1] (1.0% aqueous solution, treated eyes, sustained from 30 min after instillation) stood at 6 h. In addition, in data set [1] (non-treated eyes (FIG. 3)), the “change in intraocular pressure of the other, non-treated eyes” value was “no significant change”. Further, the α-adrenergic blocking activity entry in data set [2] is “exhibit both α-adrenergic and β-adrenergic blocking activities”. For the same molecule, the “stability against heat and light” value in data set [3] is “stable”. The “return of intraocular pressure to the initial value (time)” value in data set [4] (Day 1) amounted to 24 h. The “further decrease in intraocular pressure by second instillation” value in data set [4] (Day 1, second instillation 4 hours later) is listed as “not found to bring about any further decrease in intraocular pressure”. The “decrease in intraocular pressure” value in data set [4] (Day 2, 2 hours after instillation) is on record as “significant decrease in intraocular pressure”; in data set [4] (Day 3), “no significant intraocular pressure drop”; in data set [4] (Day 4), “significant decrease in intraocular pressure”; in data set [4] (Day 5, any measuring time), “almost the same degree of intraocular pressure decrease as on Day 1”. For the same molecule, in data set [4] (three times a day for 5 days), the tachyphylaxis result is listed as “free from tachyphylaxis”. Also, in data set [5], the “scanning electron microscope evaluation of corneal epithelial and endothelial cells” value is listed as “no abnormalities”. Also, the “change in pupil diameter” value in data set [6] was “no significant change in the pupil diameter”.
